# From the supplement of paper PMC10307832
# How the values were obtained:
# Assay in all cases: relative viability (nuclei count vs DMSO), 5 days (fraction); higher = more cells survive
# [1] = test system: HCC-78
# How it was run: (§1)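 One day after seeding in 1536-well plates, lung cancer cell lines were dosed by pin tool. Dosing was either single-drug or a fixed anchor-drug dose plus five library-drug doses (not always all listed) in √10 steps. After 5 days, nuclei were stained in one fix-and-stain step and counted on 4× images, and relative viability is the nuclei count of treated wells over that of vehicle wells, given as the median of duplicate plates.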
# [2] = test system: LCLC-97TM1
# How it was run: as §1
# [3] = test system: EMC-BAC-2
# How it was run: as §1
# [4] = test system: NCI-H727
# How it was run: as §1
# [5] = test system: NCI-H1734
# How it was run: as §1
# [6] = test system: EKVX
# How it was run: as §1
# [7] = test system: ChaGo-K-1
# How it was run: as §1
# [8] = test system: NCI-H2087
# How it was run: as §1
# [9] = test system: EPLC-272H
# How it was run: as §1
# [10] = test system: RERF-LC-KJ
# How it was run: as §1
# [11] = test system: NCI-H358
# How it was run: as §1
# [12] = test system: NCI-H1944
# How it was run: as §1
structure (smiles),measurement,setting,value
Cc1cnc(-c2cnc(NCCNc3ccc(C#N)cn3)nc2-c2ccc(Cl)cc2Cl)[nH]1 + O=C(c1cc(Cc2n[nH]c(=O)c3ccccc23)ccc1F)N1CCN(C(=O)C2CC2)CC1 [Olaparib] (partner 8 µM),relative viability,[1]; first compound 0.253 µM,0.588
same,relative viability,[1]; first compound 0.8 µM,0.737
same,relative viability,[1]; first compound 2.53 µM,0.834
same,relative viability,[2]; first compound 0.08 µM,0.379
same,relative viability,[2]; first compound 0.253 µM,0.36
same,relative viability,[2]; first compound 0.8 µM,0.417
same,relative viability,[2]; first compound 2.53 µM,0.316
same,relative viability,[3]; first compound 0.08 µM,0.498
same,relative viability,[3]; first compound 0.253 µM,0.466
same,relative viability,[3]; first compound 0.8 µM,0.504
same,relative viability,[3]; first compound 2.53 µM,0.397
same,relative viability,[4]; first compound 0.08 µM,0.69
same,relative viability,[4]; first compound 0.253 µM,0.768
same,relative viability,[4]; first compound 0.8 µM,0.711
same,relative viability,[4]; first compound 2.53 µM,0.735
same,relative viability,[5]; first compound 0.08 µM,0.635
same,relative viability,[5]; first compound 0.253 µM,0.622
same,relative viability,[5]; first compound 0.8 µM,0.644
same,relative viability,[5]; first compound 2.53 µM,0.516
same,relative viability,[6]; first compound 0.08 µM,0.939
same,relative viability,[6]; first compound 0.253 µM,0.814
same,relative viability,[6]; first compound 0.8 µM,0.715
same,relative viability,[6]; first compound 2.53 µM,0.85
same,relative viability,[7]; first compound 0.08 µM,0.406
same,relative viability,[7]; first compound 0.253 µM,0.361
same,relative viability,[7]; first compound 0.8 µM,0.362
same,relative viability,[7]; first compound 2.53 µM,0.322
same,relative viability,[8]; first compound 0.08 µM,0.671
same,relative viability,[8]; first compound 0.8 µM,0.635
same,relative viability,[8]; first compound 2.53 µM,0.459
same,relative viability,[9]; first compound 0.08 µM,0.731
same,relative viability,[9]; first compound 0.253 µM,0.779
same,relative viability,[9]; first compound 0.8 µM,0.739
same,relative viability,[9]; first compound 2.53 µM,0.666
same,relative viability,[10]; first compound 0.08 µM,0.902
same,relative viability,[10]; first compound 0.253 µM,0.65
same,relative viability,[10]; first compound 0.8 µM,0.839
same,relative viability,[10]; first compound 2.53 µM,0.858
same,relative viability,[11]; first compound 0.08 µM,0.578
same,relative viability,[11]; first compound 0.253 µM,0.522
same,relative viability,[11]; first compound 0.8 µM,0.555
same,relative viability,[11]; first compound 2.53 µM,0.517
same,relative viability,[12]; first compound 0.08 µM,0.446
same,relative viability,[12]; first compound 0.8 µM,0.42
same,relative viability,[12]; first compound 2.53 µM,0.413
